Measured values published in patent publication US7943606B2, “Compositions and methods to control abnormal cell growth” (CanCure Laboratories, LLC, priority 2005, dated 2011).

Legend:
Format in all cases: cell-based
[1] = Viability of MRC-5 normal lung fibroblasts (MTT assay); details: human, MRC-5 normal lung fibroblasts; 30,000 cells per well (80-90% confluent), 72 hours, MTT; read-out: IC50 values, Cytotoxic, MRC-5
Procedure: (§1) To quantify cell death, around the time when significant and characteristic morphological changes took place, cells were pulse-labeled for 10 minutes with [^3H]thymidine to measure DNA activity as described elsewhere [Tomono, M. and Kiss, Z. (1995), “Ethanol enhances the stimulatory effects of insulin and insulin-like growth factor-I on DNA synthesis in NIH 3T3 fibroblasts,” Biochem. Biophys. Res. Commun. 208, 63-67]. Also, cells were collected as suspensions using trypsin, an established method in cell biology, followed by re-plating of cells in fresh tissue culture medium. If no viable cells were obtained after one week in culture, it meant that the cells at the time of re-plating were dead. Survival values obtained with untreated cells were considered 100%. For the determination of relative number of viable cells after treatments, in most cases the MTT assay was used. This calorimetric assay is based on the ability of living cells, but not dead cells, to reduce 3-(4,5-dimethyl thiazol-2-yl)-2,5-diphenyltetrazolium bromide [Carmichael, J, De Graff, W. G., Gazdar, A. F., Minna, J. D. and Mitchell, J. B. (1987), “Evaluation of tetrazolium-based semi-automated calorimetric assay: Assessment of chemosensitivity testing,” Cancer Res. 47, 936-942]. For this assay, cells were plated in 96-well plates, and the MTT assay was performed both in untreated and treated cell cultures. The MTT assay also was performed at the start of treatments to allow assessment of proliferation rates in the control and treated cell cultures.
(§2) The MRC-5 cell line is derived from normal lung tissue of a […] fetus. MRC-5 cells were maintained and treated in Eagles Medium with Hanks' BSS containing 10% fetal bovine serum. The T47D cells were maintained and treated in RPMI 1640 medium supplemented with 0.2 IU bovine insulin and 10% fetal bovine serum. The CaOV-3 human ovarian cancer cells were cultured in Dulbecco's modified Eagle's medium containing 10% fetal bovine serum. The cells were seeded in 96-well plates either at 10,000 cells per well or 30,000 cells per well to examine the antiproliferative and cytotoxic effects of various CC compounds, respectively. The cells were incubated for 24 hours, then the medium was changed followed by the treatments of cultures 2 hours after the medium change. At this point, cell cultures seeded at 10,000 cells per well and 30,000 cells per well were 25-35% and 80-90% confluent, respectively. Incubations were continued for 72 hours followed by the MTT assay. The data, shown in TABLE 2, indicate the inhibitory concentrations of CC compounds (IC50) required for 50% decrease in the number of viable cells. These numbers are calculated from the mean of 4 incubations in one experiment (the experiment was repeated once with similar results).

MRC-5 cells = assay: as above; details: Homo sapiens, MRC5; 10,000 cells per well (25-35% confluent), 72 hours, MTT; read-out: IC50 values, Antiproliferative, MRC-5
Procedure: as §1, §2

[2] = tested on: HL-60, HT-168, PC-3 and T47D cells; assay: Viability of four human cancer cell types by Trypan blue exclusion
Procedure: PC-3 human prostate adenocarcinoma cells were cultured in 12-well plates in Ham's F12 cell culture medium supplemented with 7% fetal bovine serum; the medium was changed for fresh 10% medium 2 hours prior to treatments. HL-60 human leukemia cells (in flasks) and HT 168 human melanoma cells were cultured in RPMI 1640 medium supplemented with 10% FCS; treatment of HL-60 and HT-168 cells were performed in flasks and 12-well plates, respectively. T47D cells were cultured in 12-well plates in RPMI 1640 medium supplemented with 2 mM L-glutamine, 10 mM Hepes, 1 mM sodium pyruvate, 4.5 g/L glucose, 1.5 g/L sodium bicarbonate, 0.2 I.U. bovine insulin/ml, and 10% fetal bovine serum; the medium was changed for fresh 10% serum-containing medium 2 hours prior to treatments. All cells were incubated for 96 hours in the absence (□) or presence of 25 μM CCDTHT ? , 50 μM CCDTHT ? , or 75 μM CCDTHT (▪). In this experiment, the viability of the cell cultures was estimated by Trypan blue exclusion using hematocytometer, a technique well known to one having ordinary skill in the art. Three independently treated cell cultures, involving at least 300 cells for each treatment, were analyzed. The experimental error is indicated as std. dev.

## CC[N+](C)(CC)CCOCc1ccc2sc3ccccc3c(=O)c2c1.[I-] [CCDTHT, N,N-diethyl-N-methyl-2-[(9-oxo-9H-thioxanthen-2-yl)methoxy]-ethanaminium iodide]
[1]
  IC50 at 72 h: 119 µM
MRC-5 cells
  IC50: 90 µM
[2]; 50-75 μM, four days
  number of viable cancer cells, HL-60, HT-168, PC-3 and T47D: strongly decreased
[2]; Homo sapiens, 25 μM, 96 hours, Trypan blue, read-out: inhibition of cell proliferation, HL60, HT-168, PC-3 and T47D cells
  inhibition at 25 µM: 40 to 55%
[2]; Homo sapiens, 75 μM, 96 hours, Trypan blue, read-out: decrease in the number of viable cells, HL60, HT-168, PC-3 and T47D cells
  cytotoxicity at 75 µM: 65 to 85%
